Source: patent publication US12123060B2, “Method for identifying targets for precision cancer therapy” (Tampere University Foundation sr, priority 2021, dated 2024)

Columns and labels:
Format in all cases: cell-based, human
LNCaP cells = test: Cell proliferation assay (siRNA knockdown, cell confluence); conditions: 10 μM carboplatin
Experimental: For cell proliferation assays, cells were reverse transfected with 25 nM siRNAs against FANCI (Dharmacon, ON-TARGETplus SMARTpool, L-022320-01-0005) or Scr control (Dharmacon, non-targeting pool), using OPTI-MEM and Lipofectamine 2000 transfection reagent (Invitrogen) in four biological replicates in a 384-well plate. LNCaP cells were plated on the wells (1000 cells/well) in antibiotic free regular growth medium. After 48 h, vehicle control (DMSO) or Carboplatin dilutions were added into wells in appropriate concentrations diluted in FBS free medium and the cell confluence was monitored for five days using live-cell imaging (IncuCyte S3, Sartorius). Cell confluence was determined by automatic counting using IncuCyte S3 Image analysis tools. Cell confluence (confluence mask) on each time point was calculated based on phase-contrast imaging with a minimum area filter of 150 μm2, segmentation adjustment of 1.0, 100 μm2 cleanup and size adjust of −2 pixels. Confluence curves were compared for statistical differences between treatment conditions at each timepoint using t-test.

[1] = system: L1 activity in LNCaP prostate cancer cells; test: L1-EGFP retrotransposition reporter assay; conditions: carboplatin 5 μM or ENZ 10 μM, 5 days, FIG. 3A
Experimental: FIG. 3. […] (A) The effects of carboplatin (5 μM) or enzalutamide (ENZ, 10 μM) on L1 activity in LNCaP prostate cancer cells analyzed using a retrotransposition L1-EGFP reporter assay and IncuCyte S3 imaging equipped with a green fluorescence channel. Representative IncuCyte cell images are shown for untreated, ENZ, and carboplatin exposed LNCaP cells with green channel only (L1-EGFP) and phase contrast. The control plasmids used included two negative controls (L1Neg-EGFP and L1Mut-EGFP) and a positive control plasmid (L1Pos-EGFP). […] See also FIG. 8. (B) The effects of carboplatin or ENZ on ORF1 and ORF2 mRNA expression in LNCaP, VCaP, PC-3, and 22Rv1 prostate cancer cells. (C) L1 ORF1 and ORF2 mRNA levels from pre- and post-castration xenograft samples from LuCaP 77 and LuCaP 105 (23). […]
FIG. 8. […] (A) The effects of carboplatin (5 μM) or enzalutamide (ENZ, 10 μM) on L1 activity in LNCaP prostate cancer cells analyzed using a retrotransposition L1-EGFP reporter assay and IncuCyte S3 imaging system equipped with a green fluorescence channel. […]
Carboplatin or enzalutamide dissolved in DMSO and culture medium without FBS was added after a 24-hour initial incubation period. […] LNCaP prostate cancer cells were transfected with L1 plasmid or positive and negative control plasmids and treated with carboplatin (5 μM) or ENZ (10 μM) the day after transfection, and cells were monitored for five days. […]

[2] = system: L1 ORF1 and ORF2 mRNA in LNCaP cells; test: qPCR of L1 ORF1 and ORF2 mRNA; conditions: for ORF1 and ORF2 mRNA expression compared to control treated cells: 5 days, alone or in combination, AZT 50 μM
Experimental: Carboplatin or enzalutamide dissolved in DMSO and culture medium without FBS was added after a 24-hour initial incubation period. To control cells DMSO diluted in culture medium was added to a final concentration of 0.02%. […]
(§1) The isolation of RNA from cell lines was conducted using TriPure Isolation Reagent (Roche) following the manufacturer's protocol. The concentration of the RNA samples was measured using NanoDrop™ One/OneC Microvolume UV-Vis Spectrophotometer, followed by dilution of the samples to 1 μg/μl. The conversion of 1 μg of RNA to cDNA was done using Transcriptor First Strand cDNA Synthesis Kit (Roche) according to the manufacturer's instructions. The RT-PCR run was performed using LightCycler™ 480 SYBR Green I Master (Roche) and The LightCycler® 480 Real-Time PCR System (Roche) with 96-multiwell format. To allow separate analysis of ORF1 and ORF2, two sets of primer pairs were designed to target the L1RP-ORF1 (ORF1 mRNA thereafter), L1RP-ORF2 (ORF2 mRNA thereafter) and FANCI (Table 2). Each run included two biological and two technical replicates per treatment with fold change calculated based on the obtained Ct-values. Normalization was done against GAPDH values measured (Table 2).

[3] = system: L1 ORF1 and ORF2 mRNA in VCaP cells; test: qPCR of L1 ORF1 and ORF2 mRNA; conditions: for increase in ORF1 and ORF2 expression: 5-day treatment, carboplatin 5 μM or ENZ 10 μM, FIG. 3B
Experimental: Carboplatin or enzalutamide dissolved in DMSO and culture medium without FBS was added after a 24-hour initial incubation period. To control cells DMSO diluted in culture medium was added to a final concentration of 0.02%. LNCaP prostate cancer cells were transfected with L1 plasmid or positive and negative control plasmids and treated with carboplatin (5 μM) or ENZ (10 μM) the day after transfection, and cells were monitored for five days.
as §1

L1 ORF1p in LNCaP cells = test: Western blot of L1 ORF1 protein; conditions: carboplatin alone, or carboplatin with further addition of AZT, FIG. 9D
Experimental: FIG. 9. Further validation of L1 activation and suppression. (A) L1 mRNA levels from pre- and post-castration samples from LuCaP 77 and LuCaP 105 (16). […] Asterisks indicate significant differences between treatment conditions based on t-test (*, p<0.05; **, p<0.01; ***, p<0.001).
Whole cell lysates were prepared using SDS sample buffer (66 mM Tris-HCl pH 6.8, 13% Glyserol, 2.1% SDS and 0.01% Bromophenol Blue) with protease inhibitor added (cOmplete™ Protease Inhibitor Cocktail, Roche).

| Structure (SMILES) | proliferation of siFANCI LNCaP cells on carboplatin exposure (LNCaP cells) | L1 retrotransposition (L1-EGFP reporter, green fluorescence) [1] | increase in ORF1 and ORF2 expression ([2]; 5-day treatment, carboplatin 5 μM, FIG. 3B) | ORF1 and ORF2 mRNA expression compared to control treated cells ([2]; FIG. 3D) | increase in ORF1 and ORF2 expression [3] [fold] | ORF1 and ORF2 mRNA expression compared to control treated cells ([3]; 5 days, alone or in combination, AZT 50 μM, FIG. 3D) [fold] | level of L1 ORF1p (Western blot) (L1 ORF1p in LNCaP cells) | ORF1 and ORF2 mRNA induction ([2]; 25-day incubation, ENZ alone or with AZT, FIG. 3D) [fold] |
| --- | --- | --- | --- | --- | --- | --- | --- | --- |
| N.N.O=C([O-])C1(C(=O)[O-])CCC1.[Pt+2] [carboplatin] | significantly decreased proliferation | L1 retrotransposition indicated by green fluorescence appeared | approximately 4 fold | approximately 4 fold | 7 | ~9 | significantly increased |  |
| CNC(=O)c1ccc(N2C(=S)N(c3ccc(C#N)c(C(F)(F)F)c3)C(=O)C2(C)C)cc1F [ENZ, enzalutamide] |  | relative increase in L1-EGFP reporter, below statistical significance |  | no significant changes | 5.5 |  |  | 8 |
